Structures are written as SMILES.

One assay has as its system Capan-1 cells. The assay can be described thus: Inhibitory activity for Capan-1 cell proliferation (CCK-8). It is filed as cell-based. Particulars: 5 days incubation. The procedure:
Capan-1 cells in a well-growing state were collected into a centrifuge tube, adjusted to a cell density of 1.5 × 10^4 cells/mL, and inoculated onto a 96-well plate (100 µL/well). […] Meanwhile, a control was set. After 5 days of incubation in the cell incubator, the assay reagent CCK-8 (manufacturer: Dojindo Laboratories, Beijing; 10 µL/well) was added. After 4 h of incubation in the cell incubator, the absorbance was measured at 450 nm on a PerkinElmer Envision microplate reader. A four-parameter analysis was performed, a dose-response curve was fitted, and IC50 was calculated.
By IC50 is commonly meant the midpoint of a concentration-inhibition curve. High values mean weaker potency in that assay, low ones greater potency in that assay. `C#Cc1c(F)ccc2cccc(-c3nc4c5c(nc(OCC67CCCN6CC(F)C7)nc5c3F)N(C(C)c3cccnc3N)C(C)CO4)c12` (single isomer, unassigned) [Example 48] yielded an IC50 below 100 nM.
The same measure, in the same setting: under `C#Cc1cccc2cccc(-c3nc4c5c(nc(OC[C@@]67CCCN6C[C@H](F)C7)nc5c3F)N(C(C)c3cccnc3N)[C@@H](C)CO4)c12` (single isomer, unassigned) [Example 131] stands below 100 nM; under `C#Cc1c(F)ccc2cc(O)cc(-c3nc4c5c(nc(OC[C@@H]6COCCN6C)nc5c3F)N(C(C)c3cccnc3N)[C@@H](C)CO4)c12` (single isomer, unassigned) [Example 92], below 100 nM.
Still for that read-out and setting: then `C#Cc1c(F)ccc2cc(O)cc(-c3nc4c5c(nc(OC[C@@H]6C[C@@H](F)CN6C)nc5c3F)N(C(C)c3cccnc3N)[C@@H](C)CO4)c12` (single isomer, unassigned) [Example 147], with below 100 nM.
As to `[2H]C([2H])(Oc1nc2c3c(nc(-c4cc(O)cc5ccc(F)c(C#C)c45)c(F)c3n1)OC[C@H](C)N2C(C)c1cccnc1N)[C@@]12CCCN1C[C@H](F)C2` (single isomer, unassigned) [Example 72], the IC50 was below 100 nM.
Regarding `CC(c1cccnc1N)N1c2nc(OC[C@@]34CCCN3C[C@H](F)C4)nc3c(F)c(-c4cc(N)cc(Cl)c4C(F)(F)F)nc(c23)OC[C@@H]1C` (single isomer, unassigned) [Example 64], the IC50 is below 100 nM.
As for `C#Cc1c(F)ccc2cc(O)cc(-c3nc4c5c(nc(OCC6(CN7CCOCC7)CC6)nc5c3F)N(C(C)c3cccnc3N)[C@@H](C)CO4)c12` (single isomer, unassigned) [Example 70], the IC50 was below 100 nM.
Take `C#Cc1c(F)ccc2cccc(-c3nc4c5c(nc(OC[C@@H]6CCCN6C)nc5c3F)N(C(C)c3cccnc3N)[C@@H](C)CO4)c12` (single isomer, unassigned) [Example 88]: the IC50 was below 100 nM.

Staying with this assay, now noted: Homo sapiens, CAPAN-1, 120 h, 5 days incubation.
Take `C#Cc1c(F)ccc2cc(O)cc(-c3nc4c5c(nc(OCCN6CCCCC6)nc5c3F)N(C(C)c3cccnc3N)[C@@H](C)CO4)c12` (single isomer, unassigned) [Example 166]: the IC50 was below 100 nM.
With `C#Cc1c(F)ccc2cc(O)cc(-c3nc4c5c(nc(OC[C@@H](C)OC)nc5c3F)N(C(C)c3cccnc3N)[C@@H](C)CO4)c12` (single isomer, unassigned) [Example 75], the IC50 is below 100 nM.
On the same count and under the same terms, under `CC(c1cccnc1N)N1c2nc(OC[C@@]34CCCN3C[C@H](F)C4)nc3c(F)c(-c4ccc(F)c5sc(N)c(C#N)c45)nc(c23)OC[C@@H]1C` (stereo partly shown) [Example 81] stands below 100 nM; under `C#Cc1c(F)ccc2cc(O)cc(-c3nc4c5c(nc(OCCCN6CCN(C)CC6)nc5c3F)N(C(C)c3cccnc3N)[C@@H](C)CO4)c12` (single isomer, unassigned) [Example 170], below 100 nM; under `CC(c1cccnc1N)N1c2nc(OC[C@@]34CCCN3C[C@H](F)C4)nc3c(F)c(-c4cccc(F)c4N(C)C)nc(c23)OC[C@@H]1C` (single isomer, unassigned) [Example 126], below 100 nM.
On the same count and under the same terms, under `C#Cc1c(F)ccc2cc(O)cc(-c3nc4c5c(nc(OCC(C)CN(C)C)nc5c3F)N(C(C)c3cccnc3N)[C@@H](C)CO4)c12` (single isomer, unassigned) [Example 144] stands below 100 nM; under `CC(c1cccnc1N)N1c2nc(OC[C@@H]3CCCN3C)nc3c(F)c(-c4ccc(F)c5sc(N)c(C#N)c45)nc(c23)OC[C@@H]1C` (single isomer, unassigned) [Example 158], below 100 nM.
The molecule `C#Cc1c(F)ccc2cc(O)cc(-c3nc4c5c(nc(OC[C@@H](C)N6CCC6)nc5c3F)N(C(C)c3cccnc3N)[C@@H](C)CO4)c12` (single isomer, unassigned) [Example 174] came in with an IC50 below 100 nM.
In turn, `C#Cc1c(F)ccc2cc(O)cc(-c3nc4c5c(nc(OCCCN6CCCCC6)nc5c3F)N(C(C)c3cccnc3N)[C@@H](C)CO4)c12` (single isomer, unassigned) [Example 142] had an IC50 below 100 nM.
In the case of `C#Cc1c(F)ccc2cc(O)cc(-c3nc4c5c(nc(OCCCN6CCOCC6)nc5c3F)N(C(C)c3cccnc3N)[C@@H](C)CO4)c12` (single isomer, unassigned) [Example 154], the IC50 was below 100 nM.
Same read-out and setting: under `C#Cc1c(F)ccc2cc(O)cc(-c3nc4c5c(nc(OC[C@@]67CCCN6C[C@H](F)C7)nc5c3F)N(CC(F)F)C(C)CO4)c12` (stereo partly shown) [Example 50] stands below 100 nM.
Consider `C#Cc1c(F)ccc2cc(O)cc(-c3nc4c5c(ncnc5c3F)N(C(C)c3cccnc3N)[C@@H](C)CO4)c12` (single isomer, unassigned) [Example 89], for which the IC50 was below 100 nM.
The same measure, in the same setting: under `C#Cc1c(F)ccc2cc(O)cc(-c3nc4c5c(nc(OC[C@@H](C)N(C)C)nc5c3F)N(C(C)c3cccnc3N)[C@@H](C)CO4)c12` (single isomer, unassigned) [Example 152] stands below 100 nM; under `Cc1cccc(-c2nc3c4c(nc(OCC56CCCN5CC(F)C6)nc4c2F)N(C(C)c2cccnc2N)C(C)CO3)c1C(F)(F)F` (single isomer, unassigned) [Example 55], below 100 nM; under `C#Cc1c(F)ccc2cc(O)cc(-c3nc4c5c(nc(OCC67CCCN6CC(F)C7)nc5c3F)N(C3CC3)C(C)CO4)c12` (single isomer, unassigned) [Example 45], below 100 nM.
With `C#Cc1c(F)ccc2cc(O)cc(-c3nc4c5c(nc(OCc6nccn6C)nc5c3F)N(C(C)c3cccnc3N)[C@@H](C)CO4)c12` (single isomer, unassigned) [Example 93], the IC50 is below 100 nM.
Still for that read-out and setting: then `C#Cc1c(F)ccc2cc(O)cc(-c3nc4c5c(nc(OCCCN6CCCC6)nc5c3F)N(C(C)c3cccnc3N)[C@@H](C)CO4)c12` (single isomer, unassigned) [Example 132], with below 100 nM; and `CC(c1cccnc1N)N1c2nc(OC[C@@]34CCCN3C[C@H](F)C4)nc3c(F)c(-c4cccc5ccc(F)c(F)c45)nc(c23)OC[C@@H]1C` (single isomer, unassigned) [Example 120], with below 100 nM.
Same read-out and setting: then `C#Cc1c(F)ccc2cc(O)cc(-c3nc4c5c(nc(OCC(C)(C)OC)nc5c3F)N(C(C)c3cccnc3N)[C@@H](C)CO4)c12` (single isomer, unassigned) [Example 77], with below 100 nM; and `Cc1cccc(-c2nc3c4c(nc(OC[C@@H]5CCCN5C)nc4c2F)N(C(C)c2cccnc2N)[C@@H](C)CO3)c1C(F)(F)F` (single isomer, unassigned) [Example 160], with below 100 nM.
As to `C#Cc1c(F)ccc2cc(O)cc(-c3nc4c5c(nc(OCC6(N)CC6)nc5c3F)N(C(C)c3cccnc3N)[C@@H](C)CO4)c12` (single isomer, unassigned) [Example 99], the IC50 was below 100 nM.
The same measure, in the same setting: then `CC(c1cccnc1N)N1c2nc(OC[C@@]34CCCN3C[C@H](F)C4)nc3c(F)c(-c4ccc(F)c5sc(N)c(C#N)c45)nc(c23)OC[C@@H]1C` (single isomer, unassigned) [Example 82], with below 100 nM.
For `CC(c1cccnc1N)N1c2nc(OC[C@@]34CCCN3C[C@H](F)C4)nc3c(F)c(-c4cccc5ccccc45)nc(c23)OC[C@@H]1C` (single isomer, unassigned) [Example 59], the IC50 was below 100 nM.
Regarding `C#Cc1c(F)ccc2cc(O)cc(-c3nc4c5c(nc(OC[C@@H]6CN(C)CCN6C)nc5c3F)N(C(C)c3cccnc3N)[C@@H](C)CO4)c12` (single isomer, unassigned) [Example 109], the IC50 was below 100 nM.
In turn, `CC(c1cccnc1N)N1c2nc(OC[C@@]34CCCN3C[C@H](F)C4)nc3c(F)c(-c4ccc(F)c5sc(N)nc45)nc(c23)OC[C@@H]1C` (single isomer, unassigned) [Example 116] had an IC50 below 100 nM.
The same measure, in the same setting: then `CC(c1cccnc1N)N1c2nc(OC[C@@]34CCCN3C[C@H](F)C4)nc3c(F)c(-c4ccccc4N(C)C)nc(c23)OC[C@@H]1C` (single isomer, unassigned) [Example 57], with below 100 nM; and `C#Cc1c(F)ccc2cc(O)cc(-c3nc4c5c(nc(OCCN6CCOCC6)nc5c3F)N(C(C)c3cccnc3N)[C@@H](C)CO4)c12` (single isomer, unassigned) [Example 136], with below 100 nM; and `CC(c1cccnc1N)N1c2nc(OC[C@@]34CCCN3C[C@H](F)C4)nc3c(F)c(-c4ccccc4C(F)(F)F)nc(c23)OC[C@@H]1C` (single isomer, unassigned) [Example 61], with below 100 nM.
On the same count and under the same terms, then `C#Cc1c(F)ccc2cc(O)cc(-c3nc4c5c(nc(OC[C@@H]6COCCN6C)nc5c3F)N(C(C)c3cccnc3N)[C@@H](C)CO4)c12` (single isomer, unassigned) [Example 91], with below 100 nM.
The molecule `C#Cc1c(F)ccc2cc(O)cc(-c3nc4c5c(nc(OCCN6CCN(C)CC6)nc5c3F)N(C(C)c3cccnc3N)[C@@H](C)CO4)c12` (single isomer, unassigned) [Example 168] registered an IC50 below 100 nM.
`Cc1cccc(-c2nc3c4c(nc(OC[C@@]56CCCN5C[C@H](F)C6)nc4c2F)N(C(C)c2cccnc2N)[C@@H](C)CO3)c1N(C)C` (single isomer, unassigned) [Example 128] displayed an IC50 below 100 nM.
Take `C#Cc1c(F)ccc2cc(O)cc(-c3nc4c5c(nc(OC[C@H](C)OC)nc5c3F)N(C(C)c3cccnc3N)[C@@H](C)CO4)c12` (single isomer, unassigned) [Example 73]: the IC50 was below 100 nM.
On the same count and under the same terms, under `CC(c1cccnc1N)N1c2nc(OC[C@@]34CCCN3C[C@H](F)C4)nc3c(F)c(-c4cc(N)cc(Cl)c4C(F)(F)F)nc(c23)OC[C@@H]1C` (single isomer, unassigned) [Example 63] stands below 100 nM.
`C#Cc1c(F)ccc2cc(O)cc(-c3nc4c5c(nc(OC[C@@]67CCCN6C[C@H](F)C7)nc5c3F)N(C(C)c3cccnc3N)[C@H](C)CO4)c12` (stereo partly shown) [Example 41] showed an IC50 below 100 nM.
The same measure, in the same setting: under `C#Cc1c(F)ccc2cc(O)cc(-c3nc4c5c(nc(OC)nc5c3F)N(C(C)c3cccnc3N)[C@@H](C)CO4)c12` (single isomer, unassigned) [Example 65] stands below 100 nM.
